Here are results for two molecules from US20230364044A1, “Methods of Treating or Preventing Acute Respiratory Distress Syndrome” (YALE UNIVERSITY, priority 2018, published 2023).

In experiment [1] the test system is WT mice (hyperoxia-induced lung injury). The experiment in a line: Hyperoxia-induced lung injury in mice, BAL readouts (total cells, protein, LDH, Amplex Red oxidants, IL-1β, IL-6). The class given is in vivo. How it is done: FIG. 1 illustrates an exemplary T3 administration regime in mice. WT mice were nebulized with triiodothyronine (T3, 40 μg/kg) for 1 day or 3 days or propylthiouracil (PTU, 100 μg/kg) for 3 days prior to 72 h continuous hyperoxia exposure.
FIGS. 2A-2F illustrate the finding that T3 attenuates hyperoxia-induced lung injury, inflammation, and oxidants in WT mice. WT mice were nebulized with T3 (40 μg/kg) for 1 day or 3 days, or PTU (100 μg/kg) for 3 days prior to 72 h continuous hyperoxia exposure. Control mice were exposed to room air (RA). […] IL-1β (FIG. 2E) and IL-6 (FIG. 2F) were detected by ELISA in BALF. The values are expressed as mean±SD and analyzed by Mann-Whitney test n=6 for each group). *p<0.05, vs RA; **p<0.05, vs hyperoxia without pretreatment.
WT, PINK1−/−, and Parkin−/− mice were nebulized with T3 (40 μg/kg) for 3 days or no pretreatment prior to 72 h continuous hyperoxia exposure. […] IL-1β (FIG. 4E) and IL-6 (FIG. 4F) were detected by ELISA in BALF. The values are expressed as mean±SD and analyzed by Mann-Whitney test n=6 for each group). *p<0.05, vs WT no T3 RA; **p<0.05, vs WT no T3 hyperoxia; #p<0.05, vs corresponding RA; ##p<0.05, vs corresponding no T3 hyperoxia.
FIGS. 6A-6F illustrate the finding that GC-1 pretreatment prevents hyperoxia-induced lung injury and accelerates recovery. WT mice were orally gavaged with GC-1 (40 μm/kg) and then exposed to RA or to continuous hyperoxia for 72 h (H3). Recovery phase was initiated after 72 h hyperoxia (R1-3, 1, 2 3 and 6 days post-hyperoxia). Cells recovered from BAL were counted as BAL total cell counts (FIG. 6A). […] IL-6 (FIG. 6E) and IL-1β (FIG. 6F) was detected by ELISA in BALF. The values are expressed as mean±SD and analyzed by Mann-Whitney test (n=4 for each group). *p<0.05 versus no GC-1 RA; **p<0.05 versus no GC-1 H3; #p<0.05 versus corresponding no GC-1.

Experiment [2] relates to mouse lungs. The experiment in a line: Immunoblot of lung lysates from mice exposed to hyperoxia. The class given is in vivo. How it is done: FIG. 3 illustrates the finding that T3 pretreatment increases mitochondrial biogenesis/fusion/mitophagy and decreases ER stress & apoptosis. WT mice were nebulized with T3 (40 μg/kg) for 1 day or 3 days or PTU (100 μg/kg) for 3 days prior to 72 h continuous hyperoxia exposure. Lysates were isolated and immunoblotted against antibodies as listed. ([…] was used as protein loading control.
FIG. 5 illustrates the finding that T3 pretreatment increased Mito anti-ROS potential, biogenesis and mitophagy via PINK 1. WT and PINK1-KO mice were nebulized with T3 (40 μg/kg) for 3 days prior to 72 h continuous hyperoxia exposure. Lysates were isolated and immunoblotted against antibodies as listed. β-Actin was used as protein loading control.
FIG. 7 illustrates the finding that GC-1 pretreatment decreased hyperoxia-induced Mito dysfunction, ER stress and apoptosis. WT mice were orally gavaged with GC-1 (40 μm/kg) and exposed to RA or to hyperoxia for 72 h (H3). A time course of recovery after 72 h hyperoxia is shown (R1-3, 1, 2 3 and 6 days post-hyperoxia). Lysates from mouse lungs were immunoblotted against the listed antibodies (Abs).
FIG. 8 illustrates the finding that GC-1 pretreatment increases Tie2 activation and decreases Ang2. WT mice were orally gavaged with GC-1 (40 μm/kg) and exposed to RA or to hyperoxia for 72 h (H3). A time course of recovery after 72 h hyperoxia is shown (R1-3, 1, 2 3 and 6 days post-hyperoxia). Lysates from mouse lungs were immunoblotted against the listed antibodies.
For orientation: In western blotting, separated proteins are transferred to a membrane and probed.

Where [3] appears, read: WT mice nebulized with T3 (40 μg/kg) for 1 day or 3 days prior to 72 h hyperoxia, FIG. 3.
Setting [4] is: WT mice orally gavaged with GC-1 (40 μm/kg), 72 h hyperoxia and recovery, FIG. 8.

`N[C@@H](Cc1cc(I)c(Oc2ccc(O)c(I)c2)c(I)c1)C(=O)O` [T3, (S)-2-amino-3-[4-(4-hydroxy-3-iodophenoxy)-3,5-diiodophenyl]propanoic acid]: the hyperoxia-induced oxidants result in experiment [1] (WT mice nebulized with T3 (40 μg/kg) for 1 day or 3 days prior to 72 h continuous hyperoxia, Amplex Red, BAL fluid) is given as “attenuates”. Also, the hyperoxia-induced lung injury entry in experiment [1] (WT mice nebulized with T3 (40 μg/kg) for 1 day or 3 days prior to 72 h continuous hyperoxia, FIGS. 2A-2F) is on record as “attenuates”. Also, the hyperoxia-induced inflammation result in experiment [1] (WT mice nebulized with T3 (40 μg/kg) for 1 day or 3 days prior to 72 h continuous hyperoxia, IL-1β, IL-6 in BALF) is listed as “attenuates”. The “mediator of T3 effects against hyperoxia-induced lung injury” value in experiment [1] (WT, PINK1−/− and Parkin−/− mice nebulized with T3 (40 μg/kg) for 3 days prior to 72 h hyperoxia, FIGS. 4A-4F) was “PINK 1, not Parkin, mediates T3 effects”. Moreover, in experiment [2] (WT and PINK1-KO mice nebulized with T3 (40 μg/kg) for 3 days prior to 72 h hyperoxia, via PINK 1, FIG. 5), the “Mito anti-ROS potential, biogenesis and mitophagy” value is recorded as “increased”. In experiment [2] (setting [3]), the “ER stress & apoptosis” value is listed as “decreases” and the mitochondrial biogenesis/fusion/mitophagy entry is “increases”.
Take `Cc1cc(OCC(=O)O)cc(C)c1Cc1ccc(O)c(C(C)C)c1` [GC-1, 2-(4-(4-hydroxy-3-isopropylbenzyl)-3,5-dimethylphenoxy)acetic acid]: in experiment [1] (WT mice orally gavaged with GC-1 (40 μm/kg), then 72 h continuous hyperoxia (H3), FIGS. 6A-6F), the hyperoxia-induced lung injury result is given as “prevents”. For the same molecule, the recovery after hyperoxia result in experiment [1] (WT mice orally gavaged with GC-1 (40 μm/kg), recovery phase 1, 2 3 and 6 days post-hyperoxia) is on record as “accelerates”. Also, the “hyperoxia-induced Mito dysfunction, ER stress and apoptosis” value in experiment [2] (WT mice orally gavaged with GC-1 (40 μm/kg), 72 h hyperoxia and recovery, FIG. 7) is on record as “decreased”. Also, in experiment [2] (setting [4]), the Ang2 result is “decreases” and the Tie2 activation entry is listed as “increases”.
